# Results published in the supplement of paper PMC11451515.
# Tested on: SEM cells
# Test: cell viability relative to DMSO control; higher = less cytotoxic
# Conditions: 48 h
# In short: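 Library compounds in DMSO were pin-dosed into 1536-well plates (5 μl) holding NOMO1 or SEM (500 cells/well) or P12-Ichikawa (1000 cells/well) leukemia cells, across an 11-point threefold series of 47 μM to 0.79 nM. Each cell line had been adapted for at least four passages in each medium. CellTiter-Glo One luminescence was read after 48 h at 37°C. Viability is the per-plate percentage relative to DMSO wells, with cell-free wells as background.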
# [1] = HPLM + 10% dialyzed FBS, 0.000781 µM
# [2] = HPLM + 10% dialyzed FBS, 0.00234 µM
# [3] = HPLM + 10% dialyzed FBS, 0.00702 µM
# [4] = HPLM + 10% dialyzed FBS, 0.0211 µM
# [5] = HPLM + 10% dialyzed FBS, 0.0632 µM
# [6] = HPLM + 10% dialyzed FBS, 0.19 µM
# [7] = HPLM + 10% dialyzed FBS, 0.569 µM
# [8] = HPLM + 10% dialyzed FBS, 1.71 µM
# [9] = HPLM + 10% dialyzed FBS, 5.12 µM
# [10] = HPLM + 10% dialyzed FBS, 15.4 µM
# [11] = HPLM + 10% dialyzed FBS, 46.1 µM
# [12] = RPMI 5 mM glucose + 10% FBS, 0.000781 µM
# [13] = RPMI 5 mM glucose + 10% FBS, 0.00234 µM
# [14] = RPMI 5 mM glucose + 10% FBS, 0.00702 µM
# [15] = RPMI 5 mM glucose + 10% FBS, 0.0211 µM
# [16] = RPMI 5 mM glucose + 10% FBS, 0.0632 µM
# [17] = RPMI 5 mM glucose + 10% FBS, 0.19 µM
# [18] = RPMI 5 mM glucose + 10% FBS, 0.569 µM
# [19] = RPMI 5 mM glucose + 10% FBS, 1.71 µM
# [20] = RPMI 5 mM glucose + 10% FBS, 5.12 µM
# [21] = RPMI 5 mM glucose + 10% FBS, 15.4 µM
# [22] = RPMI 5 mM glucose + 10% FBS, 46.1 µM
# [23] = RPMI 5 mM glucose + 10% dialyzed FBS, 0.000781 µM
# [24] = RPMI 5 mM glucose + 10% dialyzed FBS, 0.00234 µM
# [25] = RPMI 5 mM glucose + 10% dialyzed FBS, 0.00702 µM
# [26] = RPMI 5 mM glucose + 10% dialyzed FBS, 0.0211 µM
# [27] = RPMI 5 mM glucose + 10% dialyzed FBS, 0.0632 µM
# [28] = RPMI 5 mM glucose + 10% dialyzed FBS, 0.19 µM
# [29] = RPMI 5 mM glucose + 10% dialyzed FBS, 0.569 µM
# [30] = RPMI 5 mM glucose + 10% dialyzed FBS, 1.71 µM
# [31] = RPMI 5 mM glucose + 10% dialyzed FBS, 5.12 µM
# [32] = RPMI 5 mM glucose + 10% dialyzed FBS, 15.4 µM
# [33] = RPMI 5 mM glucose + 10% dialyzed FBS, 46.1 µM
Compound,cell viability [1],cell viability [2],cell viability [3],cell viability [4],cell viability [5],cell viability [6],cell viability [7],cell viability [8],cell viability [9],cell viability [10],cell viability [11],cell viability [12],cell viability [13],cell viability [14],cell viability [15],cell viability [16],cell viability [17],cell viability [18],cell viability [19],cell viability [20],cell viability [21],cell viability [22],cell viability [23],cell viability [24],cell viability [25],cell viability [26],cell viability [27],cell viability [28],cell viability [29],cell viability [30],cell viability [31],cell viability [32],cell viability [33]
COc1cc(/C=C/C(=O)CC(=O)/C=C/c2ccc(O)c(OC)c2)ccc1O,66.6%,96.9%,108%,98.8%,102%,99.5%,104%,118%,90.4%,15.1%,5.19%,77.5%,114%,119%,128%,137%,120%,120%,128%,99.5%,23.6%,5.59%,72.8%,96.8%,106%,108%,107%,115%,107%,118%,90.8%,34.8%,5.02%
COc1cc(N2CCC(N3CCN(C)CC3)CC2)ccc1Nc1ncnc(Nc2ccccc2[S+](=O)([O-])C(C)C)n1,69.6%,81.5%,85.8%,99.3%,67.4%,106%,104%,88.4%,67.6%,25.2%,11.9%,71.3%,72.6%,90.7%,93.8%,59.6%,123%,109%,81%,59.4%,22.5%,7.39%,87.4%,90.2%,82.2%,85.7%,69.8%,132%,127%,109%,72.7%,26.4%,12.9%
CN[C@@H](C)C(=O)N[C@H]1CCCC[C@H]2CC[C@@H](C(=O)N[C@@H](c3ccccc3)c3cn(CCCCc4ccc(CCCCn5cc([C@@H](NC(=O)[C@@H]6CC[C@@H]7CCCC[C@H](NC(=O)[C@H](C)NC)C(=O)N76)c6ccccc6)nn5)cc4)nn3)N2C1=O,73.5%,96.1%,90.5%,100%,90.5%,89.2%,88.1%,91%,92.2%,103%,69.2%,90.3%,97.9%,94.9%,95.6%,83.4%,89.5%,82.2%,87.2%,94.8%,85%,35.3%,95.8%,90.5%,82%,95.2%,99.4%,86.8%,82.3%,95.3%,82.4%,84.4%,54.4%
COc1ccc(CCC(=O)Nc2nc3ccc(Cl)cc3s2)cc1OC,104%,114%,121%,111%,120%,104%,116%,112%,132%,116%,111%,112%,92.8%,108%,102%,123%,127%,124%,126%,115%,104%,95%,120%,102%,105%,113%,120%,107%,101%,121%,102%,117%,105%
CCCCc1oc2ccc(NS(C)(=O)=O)cc2c1C(=O)c1ccc(OCCCN(CCCC)CCCC)cc1,62.8%,66%,80.9%,87.6%,92.6%,86.6%,101%,98.7%,70.2%,78.6%,8.35%,88.9%,87.5%,98.2%,109%,95.6%,92.6%,101%,108%,96.3%,94.1%,14.9%,94.8%,94.1%,98.4%,108%,107%,99.3%,100%,109%,97%,94.7%,6.45%
Cc1cc(SCc2sc(-c3ccc(C(F)(F)F)c(F)c3)nc2C)ccc1OCC(=O)O,104%,107%,105%,40.9%,103%,109%,108%,111%,105%,98.9%,96.1%,102%,74.9%,96.7%,43.2%,100%,107%,99.4%,101%,104%,93.8%,103%,93.4%,93.3%,106%,48.4%,93.6%,104%,100%,100%,91.6%,101%,96.5%
N/C(=N\C(=O)c1nc(Cl)c(N)nc1N)NCc1ccccc1,74.5%,91.8%,92.9%,106%,91.3%,94.6%,113%,102%,98.8%,85%,77.2%,76.4%,91.1%,95.2%,94.3%,83.8%,96.5%,84.3%,97.3%,94.6%,62.3%,43.5%,91%,103%,94%,102%,81.6%,99.8%,94.2%,99.5%,90.8%,76.2%,59.7%
Cc1cnc(Nc2ccc(OCCN3CCCC3)cc2)nc1Nc1cccc([S+](=O)([O-])NC(C)(C)C)c1,83.6%,93.2%,93.9%,88.2%,96.3%,89.5%,96.7%,102%,96.1%,68.2%,67.2%,88.9%,95.8%,95.4%,111%,104%,106%,108%,88.5%,89.9%,90.1%,77.2%,83.5%,97.3%,98.8%,106%,98.2%,99.2%,106%,98.1%,82.4%,84.5%,71.9%
